Measured values reported in paper PMC7574915 (Science Translational Medicine, 2020).
Several values for one entry are separate records, joined by “and”; a condition that tells them apart may be missing. Equal entries are not always repeated. Where two headings read alike, the source gives them in different places.

How the values were obtained:
3CLpro of SARS-CoV = 3CLpro of SARS-CoV (Severe acute respiratory syndrome coronavirus, UniProt P0C6X7); experiment: biochemical
MHV = experiment: microbe, parasite or virus in culture; format: cell-based, mouse hepatitis virus; conditions: Murine coronavirus, L929, 24 h, read-out: EC50 in cell culture, MHV
FIPV [1] = experiment: microbe, parasite or virus in culture; format: cell-based, feline infectious peritonitis virus; conditions: Alphacoronavirus 1, CRFK, 24 h, read-out: EC50 in cell culture, FIPV
3CLpro of MERS-CoV = 3CLpro of MERS-CoV (Middle East respiratory syndrome-related coronavirus, UniProt K9N7C7); experiment: biochemical
3CLpro of MERS-CoV, sequence (K9N7C7 3248-3553 limits assumed): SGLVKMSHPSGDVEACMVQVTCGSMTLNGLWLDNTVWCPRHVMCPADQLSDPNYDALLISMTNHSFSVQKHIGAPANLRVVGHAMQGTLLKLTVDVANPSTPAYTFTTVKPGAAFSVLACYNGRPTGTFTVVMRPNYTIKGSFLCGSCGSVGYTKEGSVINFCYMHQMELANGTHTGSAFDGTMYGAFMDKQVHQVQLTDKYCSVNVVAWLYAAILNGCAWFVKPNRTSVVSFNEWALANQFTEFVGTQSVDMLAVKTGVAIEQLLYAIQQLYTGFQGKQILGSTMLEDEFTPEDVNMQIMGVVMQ

3CLpro of SARS-CoV-2 = molecular target: T1, 3CLpro of SARS-CoV-2 (Severe acute respiratory syndrome coronavirus 2, UniProt P0DTD1); experiment: biochemical
T1 construct: His6 (N); made in house; host or cells: E. coli (inferred from the pET-28a(+) vector)

SARS-CoV-2 [2] = experiment: microbe, parasite or virus in culture; format: cell-based; conditions: Severe acute respiratory syndrome coronavirus 2, Vero C1008, read-out: EC50 in cell culture, SARS-CoV-2
MERS-CoV = experiment: microbe, parasite or virus in culture; format: cell-based
SARS-CoV-2 [3] = experiment: microbe, parasite or virus in culture; format: cell-based
MERSMA-CoV [4] = conditions: mouse, in vivo, 50 mg/kg/day
MERSMA-CoV [5] = conditions: mouse, in vivo
[6] = system: feline infectious peritonitis (FIP); conditions: in vivo; cited from earlier work
FIPV [7] = conditions: read-out: EC50 in cell culture, FIPV; cited from earlier work
[8] = Middle East respiratory syndrome-related coronavirus, Huh-7, read-out: EC50 in cell culture, MERS-CoV

SMILES: CC(C)C[C@H](NC(=O)OC1CCCCC1)C(=O)N[C@H](C=O)C[C@@H]1CCNC1=O [Compound 6a]
- CC50 (in vitro): > 100 µM
- IC50 (3CLpro of SARS-CoV): 3.9 ± 0.3 µM
- EC50 (MHV): 0.12 ± 0.05 µM
- EC50 (FIPV [1]): 0.09 ± 0.02 µM
- IC50 (3CLpro of MERS-CoV): 0.35 ± 0.1 µM
- IC50 (3CLpro of SARS-CoV-2): 0.82 ± 0.1 µM

SMILES: CCCC1CCC(OC(=O)N[C@@H](CC(C)C)C(=O)N[C@H](C=O)C[C@@H]2CCNC2=O)CC1 (stereo partly shown) [Compound 6c]
- CC50 (in vitro): > 100 µM
- EC50 (MHV): 0.13 ± 0.05 µM
- EC50 (FIPV [1]): 0.12 ± 0.01 µM
- EC50 (SARS-CoV-2 [2]): 0.25 ± 0.15 µM
- EC50 in cell culture, MERS-CoV (MERS-CoV): submicromolar
- EC50 (MERS-CoV; [8]): 0.05 ± 0.06 µM
- IC50 (3CLpro of SARS-CoV-2): 0.28 ± 0.05 µM

SMILES: CCCCC1CCC(OC(=O)N[C@@H](CC(C)C)C(=O)N[C@H](C=O)C[C@@H]2CCNC2=O)CC1 (stereo partly shown) [Compound 6e]
- CC50 (in vitro): 63.3 ± 2.3 µM
- IC50 (3CLpro of SARS-CoV): 0.9 ± 0.1 µM
- EC50 (MHV): 0.12 ± 0.04 µM
- EC50 (FIPV [1]): 0.22 ± 0.03 µM
- inhibition of viral replication (SARS-CoV-2 [3]): about 10 fold
- inhibition at 0.5 µM (SARS-CoV-2 [3]; Severe acute respiratory syndrome coronavirus 2, Epithelial cell, read-out: inhibition of virus replication): ~50%
- EC50 (SARS-CoV-2 [2]): 0.15 ± 0.14 µM
- IC50 (3CLpro of MERS-CoV): 0.15 ± 0.02 µM
- IC50 (3CLpro of SARS-CoV-2): 0.17 ± 0.06 µM

SMILES: CC(C)C[C@H](NC(=O)OC1CCC(F)(F)CC1)C(=O)N[C@H](C=O)C[C@@H]1CCNC1=O [Compound 6h]
- CC50 (in vitro): > 100 µM
- IC50 (3CLpro of SARS-CoV): 2.3 ± 0.3 µM
- EC50 (MHV): 0.08 ± 0.05 µM
- EC50 (FIPV [1]): 0.12 ± 0.05 µM
- EC50 (SARS-CoV-2 [2]): 0.9 ± 0.8 µM
- IC50 (3CLpro of MERS-CoV): 0.07 ± 0.01 µM
- body weight (MERSMA-CoV [4]; ip): continued to lose body weight until 6 dpi but then started to gain weight from 9 dpi
- survival at the end of the study (15 dpi) (MERSMA-CoV [4]; ip): 40%
- IC50 (3CLpro of SARS-CoV-2): 0.43 ± 0.1 µM

SMILES: CC(C)C[C@H](NC(=O)OCC1CCC(F)(F)CC1)C(=O)N[C@H](C=O)C[C@@H]1CCNC1=O [Compound 6j]
- CC50 (in vitro): > 100 µM
- Edema in the lungs (score 0 to 4) (MERSMA-CoV [5]): reduced compared to control mice
- Lung virus titers (MERSMA-CoV [5]): decreased
- Scores for hyaline membrane formation (0 to 4) (MERSMA-CoV [5]): reduced in 6j-treated mice but were not statistically different from control mice
- lung lesions (histopathology) (MERSMA-CoV [5]): few observed lesions
- EC50 (FIPV [1]): 0.08 ± 0.02 µM
- inhibition of viral replication (SARS-CoV-2 [3]): about 10 fold
- inhibition of virus replication (SARS-CoV-2 [3]): 100 fold
- Virus titers (log10) (SARS-CoV-2 [3]; 48 hours): 6.35 ± 0.02 log10 and 6.10 ± 0.09 log10 and 6.30 ± 0.1 log10
- EC50 in cell culture, MERS-CoV (MERS-CoV): submicromolar
- EC50 (MERS-CoV; [8]): 0.04 ± 0.02 µM
- body weight (MERSMA-CoV [4]): regained the lost weight by 15 dpi
- body weight (MERSMA-CoV [4]; ip): rapidly recovered from body weight loss starting at 3 dpi
- survival at the end of the study (15 dpi) (MERSMA-CoV [4]; ip): all mice treated with compound 6j were alive

SMILES: CC(C)C[C@H](NC(=O)OC1CCCCC1)C(=O)N[C@@H](C[C@@H]1CCNC1=O)C(O)S(=O)(=O)O (stereo partly shown) [Compound 7a]
- CC50 (in vitro): > 100 µM
- IC50 (3CLpro of SARS-CoV): 3.8 ± 0.4 µM
- EC50 (MHV): 0.08 ± 0.03 µM
- EC50 (FIPV [1]): 0.07 ± 0.02 µM
- IC50 (3CLpro of MERS-CoV): 0.15 ± 0.01 µM
- EC50 in cell culture, MERS-CoV (MERS-CoV): submicromolar
- EC50 (MERS-CoV; [8]): 0.08 ± 0.1 µM
- IC50 (3CLpro of SARS-CoV-2): 0.65 ± 0.06 µM

SMILES: CCCC1CCC(OC(=O)N[C@@H](CC(C)C)C(=O)N[C@@H](C[C@@H]2CCNC2=O)C(O)S(=O)(=O)O)CC1 (stereo partly shown) [Compound 7c]
- CC50 (in vitro): > 100 µM
- EC50 (MHV): 0.16 ± 0.08 µM
- EC50 (FIPV [1]): 0.17 ± 0.03 µM
- IC50 (3CLpro of MERS-CoV): 0.1 ± 0.04 µM
- IC50 (3CLpro of SARS-CoV-2): 0.23 ± 0.05 µM

SMILES: CCCCC1CCC(OC(=O)N[C@@H](CC(C)C)C(=O)N[C@@H](C[C@@H]2CCNC2=O)C(O)S(=O)(=O)O)CC1 (stereo partly shown) [Compound 7e]
- CC50 (in vitro): 59.1 ± 3.5 µM
- IC50 (3CLpro of SARS-CoV): 1 ± 0.1 µM
- EC50 (MHV): 0.13 ± 0.02 µM
- EC50 (FIPV [1]): 0.17 ± 0.02 µM
- IC50 (3CLpro of MERS-CoV): 0.13 ± 0.06 µM
- EC50 in cell culture, MERS-CoV (MERS-CoV): submicromolar
- EC50 (MERS-CoV; [8]): 0.53 ± 0.2 µM
- IC50 (3CLpro of SARS-CoV-2): 0.2 ± 0.06 µM

SMILES: CC(C)C[C@H](NC(=O)OC1CCC(F)(F)CC1)C(=O)N[C@@H](C[C@@H]1CCNC1=O)C(O)S(=O)(=O)O (stereo partly shown) [Compound 7h]
- CC50 (in vitro): > 100 µM
- IC50 (3CLpro of SARS-CoV): 2.2 ± 0.1 µM
- EC50 (MHV): 0.11 ± 0.08 µM
- EC50 (FIPV [1]): 0.12 ± 0.06 µM
- IC50 (3CLpro of MERS-CoV): 0.08 ± 0.01 µM
- EC50 in cell culture, MERS-CoV (MERS-CoV): submicromolar
- EC50 (MERS-CoV; [8]): 0.21 ± 0.1 µM
- IC50 (3CLpro of SARS-CoV-2): 0.41 ± 0.1 µM

SMILES: CC(C)C[C@H](NC(=O)OCC1CCC(F)(F)CC1)C(=O)N[C@@H](C[C@@H]1CCNC1=O)C(O)S(=O)(=O)O (stereo partly shown) [Compound 7j]
- CC50 (in vitro): > 100 µM
- IC50 (3CLpro of SARS-CoV): 1.1 ± 0.1 µM
- EC50 (MHV): 0.16 ± 0.05 µM
- EC50 (FIPV [1]): 0.07 ± 0.01 µM
- IC50 (3CLpro of MERS-CoV): 0.1 ± 0.01 µM
- IC50 (3CLpro of SARS-CoV-2): 0.45 ± 0.1 µM

SMILES: CC(C)C[C@H](NC(=O)OCc1ccccc1)C(=O)N[C@@H](C[C@@H]1CCNC1=O)C(O)S(=O)(=O)O (stereo partly shown) [GC376, reference compound]
- CC50 (in vitro): > 100 µM
- progression of FIP [6]: reversed the progression of FIP and resulted in clinical remission
- EC50 (MERS-CoV; [8]): ~1 µM
- EC50 (MERS-CoV; read-out: EC50 in cell culture, MERS-CoV): 0.9 ± 0.2 µM
- EC50 (FIPV [7]): 0.04 µM
